Data taken from the supplement of paper PMC6045584.
± gives the standard deviation of the averaged measurements.

Tests used:
[1] = compound: O=C(O)CC[C@H]1CC[C@@](c2cc(F)ccc2F)(S(=O)(=O)c2ccc(Cl)cc2)CC1 [MK0752]; experiment: surviving fraction relative to DMSO-only wells; higher = less growth inhibition; details: exposure time: 5 days
How it was run: (§1)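 Log-phase tumour cell lines, 250–500 cells per well in 384-well plates, received inhibitors at 0.5, 1, 5, 10, 50, 100, 500 and 1000 nM continuously for five days, starting 24 hours after seeding. Viability was quantified with CellTiter-Glo luminescence and normalised to the median of DMSO-only wells to give surviving fraction. Three screens were run per line, and a line stayed in only with replicate Pearson r >0.7 and median Z' >0.3.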

[2] = compound: C#Cc1cccc(Nc2ncnc3cc(OCCOC)c(OCCOC)cc23)c1 [ERLOTINIB]; experiment: as above; details: exposure time: 5 days
How it was run: as §1

Test System | surviving fraction ([1]; 0.5 nM) | surviving fraction ([1]; 1 nM) | surviving fraction ([1]; 5 nM) | surviving fraction ([1]; 10 nM) | surviving fraction ([1]; 50 nM) | surviving fraction ([1]; 100 nM) | surviving fraction ([1]; 500 nM) | surviving fraction ([1]; 1000 nM) | surviving fraction ([2]; 0.5 nM) | surviving fraction ([2]; 1 nM) | surviving fraction ([2]; 5 nM) | surviving fraction ([2]; 10 nM) | surviving fraction ([2]; 50 nM) | surviving fraction ([2]; 100 nM) | surviving fraction ([2]; 1000 nM) | surviving fraction ([2]; 500 nM)
CADOES1 SOFT TISSUE | 0.976 ± 0.09 | 1.02 ± 0.13 | 0.994 ± 0.073 | 0.953 ± 0.054 | 1.02 ± 0.14 | 0.849 ± 0.041 | 0.801 ± 0.086 | 0.931 ± 0.11 | 0.854 ± 0.09 | 0.853 ± 0.033 | 0.882 ± 0.11 | 0.839 ± 0.11 | 0.783 ± 0.073 | 0.829 ± 0.057 | 0.842 ± 0.077 | 
ZR751 BREAST | 1.21 ± 0.034 | 1.15 ± 0.031 | 1.13 ± 0.13 | 1.06 ± 0.089 | 1.09 ± 0.041 | 1.17 ± 0.083 | 1.14 ± 0.15 | 1.25 ± 0.24 | 1.01 ± 0.04 | 1.29 ± 0.17 | 1.14 ± 0.14 | 1.05 ± 0.087 | 0.926 ± 0.14 | 0.881 ± 0.14 | 0.766 ± 0.045 | 0.71 ± 0.18
143B BONE | 1 ± 0.028 | 1.04 ± 0.03 | 1.022 ± 0.0064 | 1.05 ± 0.015 | 1.02 ± 0.044 | 1.05 ± 0.026 | 1.01 ± 0.02 | 1.06 ± 0.023 |  | 1.11 ± 0.067 | 1.13 ± 0.067 |  | 1.15 ± 0.053 | 1.17 ± 0.067 | 1.15 ± 0.16 | 1.19 ± 0.14
HCC202 BREAST | 1.28 ± 0.66 | 0.775 ± 0.51 | 0.94 ± 0.78 | 1.27 ± 0.18 | 1.23 ± 0.21 | 1.21 ± 0.1 | 1.31 ± 0.069 | 1.39 ± 0.36 | 1.37 ± 0.29 |  | 1.2 ± 0.2 | 1.2 ± 0.12 | 1.64 ± 0.29 | 1.32 ± 0.28 | 0.762 ± 0.15 | 
LM7 BONE | 0.915 ± 0.045 | 0.93 ± 0.078 | 1.08 ± 0.096 | 0.996 ± 0.098 | 1.03 ± 0.035 | 1.05 ± 0.048 | 0.937 ± 0.11 | 0.945 ± 0.063 | 1.09 ± 0.1 | 0.989 ± 0.043 | 1.2 ± 0.043 | 1.06 ± 0.051 | 1.23 ± 0.061 | 1.15 ± 0.098 |  | 0.932 ± 0.058
CAL120 BREAST | 1.009 ± 0.0055 | 1 ± 0.047 | 1.025 ± 0.0088 | 1.01 ± 0.024 | 1.03 ± 0.018 | 1.07 ± 0.028 | 1.023 ± 0.0088 | 1 ± 0.054 | 0.971 ± 0.033 | 0.964 ± 0.036 | 0.965 ± 0.041 | 0.963 ± 0.017 | 0.988 ± 0.012 | 0.976 ± 0.052 | 0.958 ± 0.038 | 0.967 ± 0.035
HELA CERVIX | 1.07 ± 0.098 | 1.14 ± 0.056 | 1.08 ± 0.023 | 1.09 ± 0.035 | 1.13 ± 0.16 | 1.2 ± 0.087 | 1.2 ± 0.034 | 1.2 ± 0.09 | 1.06 ± 0.057 | 1.08 ± 0.045 | 1.04 ± 0.089 | 1.05 ± 0.04 | 1.17 ± 0.054 | 1.18 ± 0.028 | 1.15 ± 0.021 | 1.25 ± 0.035
YAMATO SYNOVIAL | 1.34 ± 0.1 | 1.39 ± 0.13 | 1.51 ± 0.082 | 1.39 ± 0.058 | 1.49 ± 0.12 | 1.46 ± 0.11 | 1.49 ± 0.063 | 1.41 ± 0.1 | 1.28 ± 0.12 | 1.29 ± 0.088 | 1.43 ± 0.079 | 1.26 ± 0.036 | 1.39 ± 0.071 | 1.35 ± 0.014 | 1.2 ± 0.15 | 1.31 ± 0.074
MHM BONE | 1 ± 0.032 | 1.04 ± 0.029 | 1.06 ± 0.029 | 1.06 ± 0.043 | 1.08 ± 0.029 | 1.08 ± 0.013 | 0.975 ± 0.025 | 0.989 ± 0.026 | 1.02 ± 0.036 | 1.03 ± 0.035 |  |  | 1.04 ± 0.016 | 1.064 ± 0.001 | 0.998 ± 0.03 | 1.038 ± 0.01
SNU475 LIVER | 1.06 ± 0.028 | 1 ± 0.036 | 0.97 ± 0.052 | 1.02 ± 0.011 | 1.01 ± 0.019 | 1.03 ± 0.036 | 1.03 ± 0.037 | 0.965 ± 0.036 | 1.01 ± 0.03 |  | 0.974 ± 0.064 | 0.982 ± 0.044 | 0.957 ± 0.03 | 1 ± 0.047 | 0.88 ± 0.057 | 0.909 ± 0.012
HCT15 LARGE INTESTINE | 1.1 ± 0.032 | 1.08 ± 0.05 | 1.11 ± 0.032 | 1.09 ± 0.055 | 1.09 ± 0.029 | 1.1 ± 0.024 | 1.09 ± 0.044 | 1.082 ± 0.0067 | 1.06 ± 0.12 | 1 ± 0.15 | 0.979 ± 0.17 | 0.977 ± 0.078 | 1.1 ± 0.038 | 1.11 ± 0.039 |  | 1.1 ± 0.044
DU4475 BREAST | 1.04 ± 0.097 | 0.997 ± 0.16 | 0.927 ± 0.19 | 1.03 ± 0.21 | 0.967 ± 0.22 | 0.911 ± 0.26 | 0.976 ± 0.35 | 1.05 ± 0.38 | 0.965 ± 0.051 | 0.972 ± 0.086 |  |  |  | 1.17 ± 0.027 | 1.02 ± 0.033 | 1.15 ± 0.14
SJSA1 BONE | 1 ± 0.03 | 1.09 ± 0.044 | 1.02 ± 0.089 | 1.09 ± 0.06 | 1.08 ± 0.036 | 1.14 ± 0.02 | 1.03 ± 0.027 | 1.07 ± 0.044 | 1.69 ± 0.11 | 0.267 ± 0.022 | 1.55 ± 0.035 | 0.189 ± 0.0056 | 1.02 ± 0.032 | 1.76 ± 0.13 |  | 1.75 ± 0.1
HCC78 LUNG | 0.916 ± 0.12 | 0.966 ± 0.16 | 1.08 ± 0.16 | 1.07 ± 0.12 | 1.17 ± 0.062 | 1.06 ± 0.15 | 0.839 ± 0.24 | 0.957 ± 0.17 | 0.768 ± 0.087 |  | 0.918 ± 0.11 | 1.02 ± 0.033 | 0.962 ± 0.18 |  | 0.847 ± 0.1 | 0.767 ± 0.15
HCC1395 BREAST | 1.09 ± 0.017 | 0.987 ± 0.16 | 1.08 ± 0.036 | 1.1 ± 0.099 | 1.06 ± 0.011 | 1.06 ± 0.15 | 0.975 ± 0.028 | 0.925 ± 0.12 |  | 0.992 ± 0.02 | 1.33 ± 0.036 | 1.18 ± 0.14 |  | 1.28 ± 0.027 | 1.19 ± 0.051 | 1.14 ± 0.042
NCIH441 LUNG | 0.971 ± 0.21 | 1 ± 0.17 | 1.11 ± 0.057 | 1.08 ± 0.099 | 1.02 ± 0.03 | 1.05 ± 0.061 | 1.07 ± 0.11 | 0.974 ± 0.065 | 1.2 ± 0.086 | 1.16 ± 0.14 | 1.09 ± 0.083 | 1.08 ± 0.12 | 1.08 ± 0.067 | 1.11 ± 0.1 | 1.17 ± 0.12 | 0.992 ± 0.086
VCAP PROSTATE | 1.04 ± 0.051 | 1.15 ± 0.15 | 1.11 ± 0.14 | 1.19 ± 0.13 | 1.12 ± 0.065 | 1.22 ± 0.12 | 1.14 ± 0.076 | 1.12 ± 0.15 | 1 ± 0.042 | 0.988 ± 0.16 | 1.17 ± 0.089 | 1.15 ± 0.057 | 1.13 ± 0.093 | 1.08 ± 0.084 | 1.09 ± 0.093 | 1.11 ± 0.05
SCC36 HEADNECK | 1.06 ± 0.15 | 1.13 ± 0.14 | 1.19 ± 0.064 | 0.962 ± 0.057 | 1.12 ± 0.035 | 1.03 ± 0.055 | 1.03 ± 0.047 | 0.965 ± 0.073 |  | 0.929 ± 0.089 | 1.06 ± 0.032 | 1.07 ± 0.057 |  | 0.82 ± 0.033 | 0.397 ± 0.038 | 0.548 ± 0.059
SUM149 BREAST | 0.927 ± 0.072 | 0.995 ± 0.09 | 1.03 ± 0.062 | 1.05 ± 0.03 | 1.01 ± 0.08 | 0.98 ± 0.15 | 0.884 ± 0.014 | 0.935 ± 0.068 | 1.1 ± 0.12 | 1.11 ± 0.12 | 1.01 ± 0.13 | 0.966 ± 0.082 | 0.922 ± 0.13 | 0.75 ± 0.03 | 0.434 ± 0.033 | 0.454 ± 0.042
CAL51 BREAST | 1.02 ± 0.015 | 0.995 ± 0.035 | 0.972 ± 0.027 | 0.967 ± 0.064 | 1.05 ± 0.013 | 0.992 ± 0.038 | 1.02 ± 0.036 | 1.02 ± 0.041 | 0.969 ± 0.04 | 0.993 ± 0.069 | 1.05 ± 0.067 | 1.02 ± 0.062 | 1.07 ± 0.045 | 1.07 ± 0.036 | 1.061 ± 0.0043 | 1.09 ± 0.059
HCC38 BREAST | 1.22 ± 0.34 | 1.15 ± 0.21 | 1.27 ± 0.18 | 1.24 ± 0.044 | 1.21 ± 0.15 | 1.34 ± 0.28 | 1.12 ± 0.03 | 1.1 ± 0.16 | 1.16 ± 0.22 | 1.22 ± 0.14 | 1.48 ± 0.025 | 1.29 ± 0.15 | 1.54 ± 0.15 | 1.17 ± 0.13 | 1.1 ± 0.16 | 1.19 ± 0.2
JURKAT HAEMATOPOIETIC AND LYMPHOID TISSUE | 1.06 ± 0.026 | 1.07 ± 0.021 | 1.07 ± 0.012 | 1.02 ± 0.051 | 1.04 ± 0.017 | 1.01 ± 0.026 | 0.988 ± 0.04 | 0.976 ± 0.023 | 1.05 ± 0.025 |  | 1.05 ± 0.037 | 1.03 ± 0.041 | 0.989 ± 0.035 | 1.01 ± 0.015 | 1.01 ± 0.038 | 0.988 ± 0.015
